Laboratory results reported in patent US9499550B2 (BRISTOL-MYERS SQUIBB COMPANY, priority 2012, dated 2016).

Columns and labels:
[1] = test system: HCV genotype 1b (Con1) replicon in HUH-7 cells; experiment: HCV replicon luciferase reporter assay, genotype 1b; format: cell-based; settings: Hepatitis C virus, Huh-7, 72 h, HCV genotype 1b replicon luciferase, 3 days incubation, read-out: LE_1b (EC50, range)
Procedure, shortened: (§1)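 Replicon inhibition for both genotypes was measured as Renilla luciferase signal (EnduRen, 7.5 μM final, 2 h) after 3-day, 37° C exposure of replicon-bearing HUH-7 cells in 4% FCS DMEM, 0.5% DMSO. The 1b construct carries S1179I; the 1a H77 construct carries P1496L and S2204I. Twenty-point, 3-fold dilutions were fitted four-parametrically for EC50, and CC50 was taken from multiplexed Cell Titer-Blue.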

[2] = test system: HCV genotype 1a (H77 strain) replicon in HUH-7 cells; experiment: HCV replicon luciferase reporter assay, genotype 1a; format: cell-based; settings: Hepatitis C virus, Huh-7, 72 h, HCV genotype 1a replicon luciferase, 3 days incubation, read-out: LE_1a (EC50, range)
Procedure, shortened: as §1

Compound	EC50 [1] [nM]	EC50 [2] [nM]
CC[C@@H]1C[C@H](C)CC/C=C\[C@@H]2C[C@@]2(C(=O)NS(=O)(=O)C2(CF)CC2)NC(=O)[C@@H]2C[C@@H](Oc3nc4c(c5cc(OC)ccc35)CCCO4)CN2C(=O)[C@H]1NC(=O)OC(C)(C)C(C)(F)F [Compound 6088, 3,3-difluoro-2-methylbutan-2-yl((2R,6S,7R,9R,13aS,14aR,16aS,Z)-7-ethyl-14a-(((1-(fluoromethyl)cyclopropyl)sulfonyl)carbamoyl)-2-((9-methoxy-2,3-dihydro-1H-pyrano[2,3-c]isoquinolin-6-yl)oxy)-9-methyl-5,16-dioxo-1,2,3,5,6,7,8,9,10,11,13a,14,14a,15,16,16a-hexadecahydrocyclopropa[e]pyrrolo[1,2-a][1,4]diazacyclopentadecin-6-yl)carbamate]	5.01 to 35	5.01 to 35
CC[C@@H]1C[C@H](C)CC/C=C\[C@@H]2C[C@@]2(C(=O)NS(=O)(=O)C2(C)CC2)NC(=O)[C@@H]2C[C@@H](Oc3nc4c(c5cc(OC)ccc35)CCCO4)CN2C(=O)[C@H]1NC(=O)OC(C)(C)C(C)(F)F [Compound 6090, 3,3-difluoro-2-methylbutan-2-yl((2R,6S,7R,9R,13aS,14aR,16aS,Z)-7-ethyl-2-((9-methoxy-2,3-dihydro-1H-pyrano[2,3-c]isoquinolin-6-yl)oxy)-9-methyl-14a-(((1-methylcyclopropyl)sulfonyl)carbamoyl)-5,16-dioxo-1,2,3,5,6,7,8,9,10,11,13a,14,14a,15,16,16a-hexadecahydrocyclopropa[e]pyrrolo[1,2-a][1,4]diazacyclopentadecin-6-yl)carbamate]	0.51 to 1	0.51 to 1
CC[C@@H]1C[C@H](C)CC/C=C\[C@@H]2C[C@@]2(C(=O)NS(=O)(=O)C2(C)CC2)NC(=O)[C@@H]2C[C@@H](Oc3nc4c(c5cc(OC)ccc35)CCCO4)CN2C(=O)[C@H]1NC(=O)OC(C)(C)C(F)F [Compound 6092, 1,1-difluoro-2-methylpropan-2-yl((2R,6S,7R,9R,13aS,14aR,16aS,Z)-7-ethyl-2-((9-methoxy-2,3-dihydro-1H-pyrano[2,3-c]isoquinolin-6-yl)oxy)-9-methyl-14a-(((1-methylcyclopropyl)sulfonyl)carbamoyl)-5,16-dioxo-1,2,3,5,6,7,8,9,10,11,13a,14,14a,15,16,16a-hexadecahydrocyclopropa[e]pyrrolo[1,2-a][1,4]diazacyclopentadecin-6-yl)carbamate]	1.01 to 5	1.01 to 5
CC[C@@H]1C[C@H](C)CC/C=C\[C@@H]2C[C@@]2(C(=O)NS(=O)(=O)C2(C)CC2)NC(=O)[C@@H]2C[C@@H](Oc3nc4c(c5cc(OC)ccc35)CCCO4)CN2C(=O)[C@H]1NC(=O)OC(C)(C)C(F)(F)F [Compound 6095, 1,1,1-trifluoro-2-methylpropan-2-yl((2R,6S,7R,9R,13aS,14aR,16aS,Z)-7-ethyl-2-((9-methoxy-2,3-dihydro-1H-pyrano[2,3-c]isoquinolin-6-yl)oxy)-9-methyl-14a-(((1-methylcyclopropyl)sulfonyl)carbamoyl)-5,16-dioxo-1,2,3,5,6,7,8,9,10,11,13a,14,14a,15,16,16a-hexadecahydrocyclopropa[e]pyrrolo[1,2-a][1,4]diazacyclopentadecin-6-yl)carbamate]	0.1 to 0.5	0.51 to 1
CC(C)Oc1cc2ccccc2c(O[C@@H]2C[C@H]3C(=O)N[C@]4(C(=O)NS(=O)(=O)C5(C)CC5)C[C@H]4/C=C\CC[C@@H](C)C[C@@H](C)[C@H](NC(=O)OC(C)(C)C)C(=O)N3C2)n1 [Compound 6098, tert-butyl ((2R,6S,7R,9R,13aS,14aR,16aS,Z)-2-((3-isopropoxyisoquinolin-1-yl)oxy)-7,9-dimethyl-14a-(((1-methylcyclopropyl)sulfonyl)carbamoyl)-5,16-dioxo-1,2,3,5,6,7,8,9,10,11,13a,14,14a,15,16,16a-hexadecahydrocyclopropa[e]pyrrolo[1,2-a][1,4]diazacyclopentadecin-6-yl)carbamate]	0.1 to 0.5	0.51 to 1
